Assay results published in BindingDB's records for doi:10.1016/j.bmcl.2012.09.045 (East China University of Science and Technology, 2012).

Target: T1, Bile acid receptor (Homo sapiens, UniProt Q96RI1)
T1 sequence (Q96RI1 whole entry): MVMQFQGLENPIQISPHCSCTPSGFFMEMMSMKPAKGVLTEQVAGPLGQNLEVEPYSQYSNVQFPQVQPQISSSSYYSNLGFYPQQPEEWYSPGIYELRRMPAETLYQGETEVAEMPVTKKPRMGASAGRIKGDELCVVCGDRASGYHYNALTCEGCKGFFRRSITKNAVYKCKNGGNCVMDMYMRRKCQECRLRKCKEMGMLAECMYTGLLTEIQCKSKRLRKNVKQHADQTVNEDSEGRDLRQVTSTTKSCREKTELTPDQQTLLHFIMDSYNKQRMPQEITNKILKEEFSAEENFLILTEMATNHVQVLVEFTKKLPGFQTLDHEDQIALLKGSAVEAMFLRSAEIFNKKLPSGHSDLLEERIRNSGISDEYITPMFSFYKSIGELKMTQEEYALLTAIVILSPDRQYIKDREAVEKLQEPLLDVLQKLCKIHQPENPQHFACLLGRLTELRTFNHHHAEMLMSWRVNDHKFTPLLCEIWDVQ
Assay: Agonist activity at FXR

EC50: 343 nM
Compound: COC(=O)/C=C/c1cccc(N(Cc2ccc(-c3ccc(C(C)(C)C)cc3)cc2)C(=O)C(C)C)c1
